Data reported in patent US7659270B2, “Hepatitis C virus inhibitors” (Bristol-Myers Squibb Company, priority 2006, dated 2010).

Tested on: HCV 1b-377-neo replicon cells
Assay: HCV replicon assay (HCV 1b-377-neo replicon cells)
Format: cell-based, Hepatitis C virus genotype 1b
Design: EC50 range against HCV 1b (Range): scale not given here
Conditions: for EC50: Hepatitis C virus, read-out: EC50 range against HCV 1b (Range)
Method: An HCV Replion assay was utilized in the present disclosure, and was prepared, conducted and validated as described in commonly owned PCT/US2006/022197 and in O'Boyle et. al. Antimicrob Agents Chemother. April 2005;49(4): 1346-53.
HCV 1b-377-neo replicon cells were used to test the currently described compound series as well as cells resistant to compound A due to a Y2065H mutation in NS5A (described in application PCT/US2006/022197). The compounds tested were determined to have more than 10-fold less inhibitory activity on cells resistant to compound A than wild-type cells indicating a related mechanism of action between the two compound series. Thus, the compounds of the present disclosure can be effective to inhibit the function of the HCV NS5A protein and are understood to be as effective in combinations as previously described in application PCT/US2006/022197 and commonly owned WO/04014852. Further, the compounds of the present disclosure can be effective against the HCV 1b genotype. It should also be understood that the compounds of the present disclosure can inhibit multiple genotypes of HCV. […] In one embodiment compounds of the present disclosure are active against the 1a, 1b, 2a, 2b, 3a, 4a, and 5a genotypes.

COC(=O)N[C@@H](C)C(=O)N1CCC[C@H]1c1nc(-c2cnc(-c3ccc(-c4cnc([C@@H]5CCCN5C(=O)[C@H](C)NC(=O)OC)[nH]4)cc3)nc2)c[nH]1 [Example D73, methyl ((1S)-2-((2S)-2-(5-(4-(5-(2-((2S)-1-(N-(methoxy-carbonyl)-L-alanyl)-2-pyrroli-dinyl)-1H-imida-zol-5-yl)-2-pyrimi-dinyl)phenyl)-1H-imidazol-2-yl)-1-pyrroli-dinyl)-1-methyl-2-oxoeth-yl)carbamate]
EC50: 10 to 999 pM

COC(=O)N[C@H](C(=O)N1CCC[C@H]1c1ncc(-c2ccc(-c3ccc(-c4cnc([C@@H]5CCCN5C(=O)[C@@H](Nc5ncccn5)C(C)C)[nH]4)cc3)cc2)[nH]1)C(C)C [cj-11, methyl((1S)-2-methyl-1-(((2S)-2-(5-(4′-(2-((2S)-1-(N-2-pyrimidinyl-L-valyl)-2-pyrrolidinyl)-1H-imidazol-5-yl)-4-biphenylyl)-1H-imidazol-2-yl)-1-pyrrolidinyl)carbonyl)propyl)carbamate]
EC50: 10 to 999 pM

COC(=O)N[C@@H](C(=O)N1CCC[C@H]1c1ncc(-c2ccc(-c3ccc(-c4cnc([C@@H]5CCCN5C(=O)C5CCN(C)CC5)[nH]4)cn3)cc2)[nH]1)c1ccccc1 [Example 142, methyl ((1R)-2-((2S)-2-(5-(4-(5-(2-((2S)-1-((1-methyl-4-piperidinyl)carbonyl)-2-pyrrolidinyl)-1H-imidazol-5-yl)-2-pyridinyl)phenyl)-1H-imidazol-2-yl)-1-pyrrolidinyl)-2-oxo-1-phenylethyl)carbamate]
EC50: 1000 to 99000 pM

COC(=O)N[C@H](C(=O)N1CCC[C@H]1c1ncc(-c2ccc(-c3ccc(-c4cnc([C@@H]5CCCN5C(=O)[C@@H](NC(=O)OC)C(C)C)[nH]4)cc3C(=O)O)cc2)[nH]1)C(C)C [Example M114, 4,4′-bis(2-((2S)-1-(N-(methoxycarbonyl)-L-valyl)-2-pyrrolidinyl)-1H-imidazol-5-yl)-2-biphenylcarboxylic acid]
EC50 range against HCV 1b (Range): >A

COC(=O)N[C@H](C(=O)N1CCC[C@H]1c1nc(-c2cnc(-c3ccc(-c4cnc([C@@H]5CCCN5C(=O)[C@@H](NC(=O)OC)[C@@H](C)OC)[nH]4)c(F)c3)nc2)c[nH]1)[C@@H](C)OC [Example D70, methyl ((1S,2R)-1-(((2S)-2-(5-(2-fluoro-4-(5-(2-((2S)-1-(N-(methoxy-carbonyl)-O-methyl-L-threonyl)-2-pyrroli-dinyl)-1H-imida-zol-5-yl)-2-pyrimidi-nyl)phenyl)-1H-imida-zol-2-yl)-1-pyrroli-dinyl)carbo-nyl)-2-methoxy-propyl)carba-mate]
EC50: 10 to 999 pM

C[C@H](NC(=O)[C@@H](c1ccccc1)N(C)C)c1ncc(-c2ccc(-c3ccc(-c4cnc([C@H](C)NC(=O)[C@@H](c5ccccc5)N(C)C)[nH]4)cn3)cc2)[nH]1 [Example 152j-24, (2R)-2-(dimethylamino)-N-((1S)-1-(5-(6-(4-(2-((1S)-1-(((2R)-2-(dimethylamino)-2-phenyl-acetyl)amino)eth-yl)-1H-imidazol-5-yl)phenyl)-3-pyridinyl)-1H-imidazol-2-yl)ethyl)-2-phenylacetamide]
EC50: 10 to 999 pM

CN(C)[C@@H](C(=O)N1CCC[C@H]1c1ncc(-c2ccc(-c3ccc(-c4cnc([C@@H]5CCCN5C(=O)[C@@H](c5ccccc5)N(C)C)[nH]4)cc3C(F)(F)F)cc2)[nH]1)c1ccccc1 [Example 130, (1R,1′R)-2,2′-((2-(trifluoromethyl)-4,4′-biphenyldiyl)bis(1H-imidazole-5,2-diyl(2S)-2,1-pyrrolidinediyl))bis(N,N-dimethyl-2-oxo-1-phenylethanamine)]
EC50: 10 to 999 pM

COC(=O)N[C@H](C(=O)N1CCC[C@H]1c1nc(-c2cnc(-c3ccc(-c4cnc([C@@H]5CCCN5C(=O)[C@@H](NC(=O)OC)C5CC5)[nH]4)cc3)nc2)c[nH]1)C1CC1 [Example D75, methyl ((1S)-1-cyclopropyl-2-((2S)-2-(5-(2-(4-(2-((2S)-1-((2S)-2-cyclopropyl-2-((methoxy-carbonyl)amino)ace-tyl)-2-pyrroli-dinyl)-1H-imidazol-5-yl)phenyl)-5-pyrimi-dinyl)-1H-imida-zol-2-yl)-1-pyrroli-dinyl)-2-oxoeth-yl)carbamate]
EC50: 10 to 999 pM

COC(=O)N[C@@H](C(=O)N1CCC[C@H]1c1ncc(-c2ccc(-c3ccc(-c4cnc([C@@H]5CCCN5C(=O)[C@@H](c5ccccc5)N(C)C)[nH]4)cn3)cc2)[nH]1)c1ccccc1 [Example 140, methyl((1R)-2-((2S)-2-(5-(4-(5-(2-((2S)-1-((2R)-2-(dimethylamino)-2-phenylacetyl)-2-pyrrolidinyl)-1H-imidazol-5-yl)-2-pyridinyl)phenyl)-1H-imidazol-2-yl)-1-pyrrolidinyl)-2-oxo-1-phenylethyl)carbamate]
EC50: 10 to 999 pM

CCN(CC)[C@@H](C(=O)N1CCC[C@H]1c1ncc(-c2ccc(-c3ncc(-c4c[nH]c([C@@H]5CCCN5C(=O)[C@@H](NC(=O)OC)C(C)C)n4)cn3)cc2)[nH]1)c1ccccc1 [Example D76, methyl ((1S)-1-(((2S)-2-(5-(2-(4-(2-((2S)-1-((2R)-2-(diethyl-amino)-2-phenyl-acetyl)-2-pyrroli-dinyl)-1H-imidazol-5-yl)phenyl)-5-pyrimi-dinyl)-1H-imida-zol-2-yl)-1-pyrroli-dinyl)carbon-yl)-2-methylpro-pyl)carba-mate]
EC50: 10 to 999 pM

COC(=O)N[C@@H](C(=O)N(C)[C@@H](C)c1ncc(-c2ccc(-c3ccc(-c4cnc([C@H](C)N(C)C(=O)[C@H](NC(=O)OC)c5ccccc5)[nH]4)cc3)cc2)[nH]1)c1ccccc1 [Example 24-18-1, dimethyl (4,4′-biphenyl-diylbis(1H-imidazole-5,2-diyl(1S)-1,1-ethane-diyl(methyli-mino)(1R)-2-oxo-1-phenyl-2,1-ethane-diyl)))biscar-bamate]
EC50: 10 to 999 pM

COC(=O)N[C@H](C(=O)N1[C@H](c2ncc(-c3ccc(-c4ccc(-c5cnc([C@@H]6C[C@@H]7C[C@@H]7N6C(=O)[C@@H](NC(=O)OC)C(C)C)[nH]5)cc4)cc3)[nH]2)C[C@@H]2C[C@@H]21)C(C)C [Example M122, methyl((1S)-1-(((1S,3S,5S)-3-(5-(4′-(2-((1S,3S,5S)-2-((2S)-2-((methoxycarbonyl)amino)-3-methylbutanoyl)-2-azabicyclo[3.1.0]hex-3-yl)-1H-imidazol-5-yl)-4-biphenylyl)-1H-imidazol-2-yl)-2-azabicyclo[3.1.0]hex-2-yl)carbonyl)-2-methylpropyl)carbamate]
EC50: 1000 to 99000 pM

Cc1cc(-c2cnc([C@@H]3CCCN3C(=O)[C@@H](c3ccccc3)N(C)C)[nH]2)ccc1-c1ccc(-c2cnc([C@@H]3CCCN3C(=O)[C@@H](c3ccccc3)N(C)C)[nH]2)cn1 [Example 136, (1R)-2-((2S)-2-(5-(6-(4-(2-((2S)-1-((2R)-2-(dimethylamino)-2-phenylacetyl)-2-pyrrolidinyl)-1H-imidazol-5-yl)-2-methylphenyl)-3-pyridinyl)-1H-imidazol-2-yl)-1-pyrrolidinyl)-N,N-dimethyl-2-oxo-1-phenylethanamine]
EC50: 10 to 999 pM

CCN(CC)[C@@H](C(=O)N1CCC[C@H]1c1ncc(-c2cnc(-c3ccc(-c4[nH]c([C@@H]5CCCN5C(=O)[C@@H](c5ccccc5)N(CC)CC)nc4C(F)(F)F)cc3)nc2)[nH]1)c1ccccc1 [Example J47, (1R)-2-((2S)-2-(5-(4-(5-(2-((2S)-1-((2R)-2-(diethylamino)-2-phenylacetyl)-2-pyrrolidinyl)-1H-imidazol-5-yl)-2-pyrimi-dinyl)phenyl)-4-(trifluoromethyl)-1H-imida-zol-2-yl)-1-pyrrolidinyl)-N,N-dieth-yl-2-oxo-1-phenylethanamine]
EC50: 10 to 999 pM

COC(=O)N[C@@H](C(=O)N1CCC[C@H]1c1ncc(-c2ccc(-c3ncc(-c4cnc([C@@H]5CCCN5C(=O)[C@H](NC(=O)OC)c5ccccc5)[nH]4)cn3)cc2)[nH]1)c1ccccc1 [Example 152j-2, methyl ((1R)-2-((2S)-2-(5-(2-(4-(2-((2S)-1-((2R)-2-((methoxycarbonyl)a-mino)-2-phenylacetyl)-2-pyrrolidinyl)-1H-imidazol-5-yl)phenyl)-5-pyrimidinyl)-1H-imidazol-2-yl)-1-pyrrolidinyl)-2-oxo-1-phenylethyl)carba-mate]
EC50: 10 to 999 pM

COC(=O)N[C@@H](C(=O)N1CCC[C@H]1c1ncc(-c2cnc(-c3cnc(-c4cnc([C@@H]5CCCN5C(=O)[C@H](NC(=O)OC)c5ccccc5)[nH]4)cn3)cn2)[nH]1)c1ccccc1 [Example 153c-6, dimethyl (2,2′-bipyrazine-5,5′-diylbis(1H-imi-dazole-5,2-diyl (2S)-2,1-pyrrolidine-diyl((1R)-2-oxo-1-phe-nyl-2,1-ethane-diyl)))biscarba-mate]
EC50: 1000 to 99000 pM

C[C@@H](c1ncc(-c2ccc(-c3ccc(-c4cnc([C@@H]5CCCN5C(=O)[C@@H](c5ccccc5)N(C)C)[nH]4)cc3)cc2)[nH]1)N(C)C(=O)[C@@H](c1ccccc1)N(C)C [Example 24-18-5, (2R)-2-(dimethyl-amino)-N-((1S)-1-(5-(4′-(2-((2S)-1-((2R)-2-(dimethyl-amino)-2-phenyl-acetyl)-2-pyrroli-dinyl)-1H-imida-zol-5-yl)-4-biphenyl-yl)-1H-imidazol-2-yl)ethyl)-N-methyl-2-phenyl-acetamide]
EC50: 10 to 999 pM
